The results in this text go back to PubChem BioAssay AID1508610 (The Scripps Research Institute Molecular Screening Center, 2020).

The target of this assay is G-protein coupled receptor 151 (Homo sapiens) (UniProt Q8TDV0). Nature of the assay: GPR151 activator potency, dose response, cell-based (AID 1508610). The conditions noted are these: cell-based GPR151 activation reporter.

Activity calls are given as the source filed them. No rule for the calls is given here.

G-protein coupled receptor 151 (Homo sapiens), sequence (Q8TDV0 whole entry, looked up): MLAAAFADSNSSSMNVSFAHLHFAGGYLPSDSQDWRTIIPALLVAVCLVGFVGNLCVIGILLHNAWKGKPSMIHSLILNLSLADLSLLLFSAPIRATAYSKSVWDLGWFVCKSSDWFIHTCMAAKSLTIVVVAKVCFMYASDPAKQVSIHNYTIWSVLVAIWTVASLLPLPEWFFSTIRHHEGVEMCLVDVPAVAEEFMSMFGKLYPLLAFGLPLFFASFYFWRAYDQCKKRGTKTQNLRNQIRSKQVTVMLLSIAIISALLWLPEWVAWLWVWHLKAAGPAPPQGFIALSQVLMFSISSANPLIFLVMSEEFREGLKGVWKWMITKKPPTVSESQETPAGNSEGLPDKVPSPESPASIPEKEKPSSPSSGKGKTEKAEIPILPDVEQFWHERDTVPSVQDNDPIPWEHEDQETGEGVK

The term EC50 denotes the concentration at which the effect is half-maximal. As to `CCCCCCCCCCCCCCCC(=O)SCCOP(=O)(O)OCC[N+](C)(C)C`, the EC50 is > 11.2 µM (inactive). The same measure for `COc1ccccc1N=C1SC(CC(=O)Nc2cccc([N+](=O)[O-])c2)C(=O)N1C` (configuration not stated): > 28 µM (inactive); for `CC1(C)Cc2c(C#N)c(N3CCCC3)nc(-c3ccco3)c2CO1`: > 28 µM (inactive). The same measure for `Cc1nc2c(C(=O)NCc3ccccn3)cnn2c(C)c1Cc1cccc(Cl)c1`: > 29.5 µM (inactive); for `COc1ccc(-c2nc(Nc3ccc(C)c(Cl)c3)c3ccccc3n2)cc1OC`: > 26.1 µM (inactive).

Regarding `Fc1cccc(-c2cc3nc4c(c(N5CCOCC5)n3n2)CCC4)c1`, the EC50 is > 28 µM (inactive).

As for `Cc1sc(NC(=O)c2ccco2)c(CN2CCN(CCO)CC2)c1C`, the EC50 was > 27.7 µM (inactive).

In the case of `CCOC(=O)c1cc(C)n(CCc2ccccc2)c1C`, the EC50 was > 39.1 µM (inactive). The same measure for `Cc1sc2ncnc(N3CCN(c4ccccn4)CC3)c2c1C`: > 32.6 µM (inactive); for `Cc1ccc(Nc2ncnc3sc(C)c(C)c23)cc1F`: > 31.6 µM (inactive); for `COc1ccc(-c2ccc(C(=O)NCCO)s2)cn1`: > 27.9 µM (inactive). Turning to `Cc1ccc(CNC(=O)c2csnn2)cc1`, the EC50 was > 28 µM (inactive). With `COc1ccc(OC(C)C(=O)Nc2cc(C)ccc2C)cc1` (configuration not stated) the figure was > 32 µM (inactive).

In the case of `CC(=O)Oc1ccccc1C(=O)Nc1ncc([N+](=O)[O-])s1`, the EC50 was > 28 µM (inactive). The same measure for `Cc1cc(Br)ccc1NC(=O)c1ccc(C#N)cc1F`: > 28 µM (inactive). With `COc1ccc(C(=O)N(C)Cc2ccccc2)cc1I` the figure was > 28 µM (inactive). Consider `O=C(CSc1nc(-c2ccccc2)cs1)Nc1ccccc1`, for which the EC50 was > 28 µM (inactive). On to `Cc1c(N=Nc2c(O)[nH]c(=S)[nH]c2=O)c(=O)n(-c2ccccc2)n1C`, for which the EC50 is > 28 µM (inactive). With `NC[C@H]1O[C@H](O[C@H]2[C@H](O)[C@@H](O[C@H]3O[C@H](CO)[C@@H](O)[C@H](N)[C@H]3O)[C@H](N)C[C@@H]2N)[C@H](N)C[C@@H]1O` the figure was > 28 µM (inactive); with `[O-]/[N+](=C\c1ccncc1)c1ccc(Cl)cc1`, > 28.9 µM (inactive).

Regarding `O=C(NC1CC1)c1ccc2nc(-c3csc4ccccc34)sc2c1`, the EC50 is > 28.1 µM (inactive).

Take `c1ccc(-c2ccc(-c3nc(-c4ccccn4)no3)cc2)cc1`: the EC50 was > 24.8 µM (inactive). The same measure for `O=C(O)c1ccc(/C=C2\SC(=S)N(CCS(=O)(=O)O)C2=O)cc1`: > 28.5 µM (inactive).

For the compound `O=c1oc(Nc2cccc(C(F)(F)F)c2)nc2ccccc12`, the EC50 is > 28.4 µM (inactive). The same measure for `OCCC1CN(Cc2ccc3nonc3c2)CCN1Cc1ccc(F)c(F)c1` (configuration not stated): > 28 µM (inactive); for `COc1ccc(CCNc2ccnc(Nc3ccc(N4CCOCC4)cc3)n2)cc1`: “inactive”; for `O=C(NCCO)c1ccc2nc(-c3csc4ccccc34)sc2c1`: > 28.1 µM (inactive). The same measure for `CC(C)CC(C(=O)Nc1cccc([N+](=O)[O-])c1)N1C(=O)c2ccccc2C1=O` (configuration not stated): > 28 µM (inactive); for `CCOC(=O)COc1ccc2c(=O)c(Oc3cccc(OC)c3)coc2c1`: > 28 µM (inactive). The same measure for `CCOC(=O)c1cc(S(=O)(=O)N2CCN(c3ccccc3F)CC2)cn1C`: > 28 µM (inactive); for `CCOCCOC(=O)C1=C(C)Nc2ccc(C)cc2S1`: > 28 µM (inactive).

With `COC(=O)c1c(NC(=O)/C=C\C(=O)O)sc(C)c1C`, the EC50 was > 28 µM (inactive). The same measure for `COc1ccccc1OCCCN1C(=O)C(=O)c2cc(Br)cc(C)c21`: > 28 µM (inactive); for `O=C(CCCOc1ccccc1)NNC(=O)c1ccccc1`: > 30.1 µM (inactive); for `O=C(/C=C/c1cccc([N+](=O)[O-])c1)NC1C2CC3CC(C2)CC1C3` (configuration not stated): > 34 µM (inactive). The same measure for `CCOC(=O)c1sc(NC(=O)c2sccc2C)cc1C`: > 29 µM (inactive); for `CC(=O)c1cccc(NC(=O)CC2S\C(=N/N=C/C=C/c3ccccc3)NC2=O)c1` (configuration not stated): > 28 µM (inactive). The same measure for `COc1cccc(-c2ccc(SCC(=O)Nc3cc(C)on3)nn2)c1`: > 28.3 µM (inactive); for `COc1ccc2[nH]c(C)c(CCNCc3ccc(OC(F)(F)F)cc3)c2c1`: > 21.6 µM (inactive).

As to `C=CCOC(=O)C1=C(C)N2CCSC2=C(C#N)C1c1ccco1` (configuration not stated), the EC50 was > 32 µM (inactive). Consider `N#C/C(=C\c1cc(Cl)ccc1O)c1nc2ccccc2[nH]1`, for which the EC50 was > 28 µM (inactive).

`C=CCN1/C(=C\C=C2\C=Nc3ccc(Br)cc32)C=Cc2ccc(C)cc21`: the EC50 is > 21.9 µM (inactive). On to `O=C1[C@H]2[C@H]3[C@H](O)[C@H](O)C/C(=N\OCc4ccccc4)[C@H]3CC[C@H]2C(=O)N1C1CCCCC1`, for which the EC50 result is “inactive”. For the compound `COc1cccc(OC)c1C(=O)Nc1ccc(Br)cn1`, the EC50 was > 28 µM (inactive). On to `CON(C)C(=O)c1ccc(OCc2ccnc(Cl)c2)cc1`, for which the EC50 was > 28 µM (inactive).

As for `COc1ccc(C(=O)Nc2noc3ccccc23)cc1`, the EC50 is > 28 µM (inactive). With `CCC(C)OC(=O)C1=C(C)NC2=C(C(=O)CC(c3ccc(OC)cc3)C2)C1c1cc(OC)c(OC)cc1Br` (configuration not stated) the figure was > 22.4 µM (inactive). On to `O=C(Nc1noc2ccccc12)c1c(F)cccc1F`, for which the EC50 was > 28 µM (inactive). With `Cc1ccc(Nc2nc(N(C)C)nc3c2cnn3C)cc1C`, the EC50 is > 28.4 µM (inactive). With `C/C(=N\NC(=S)NCc1ccco1)c1cccc([N+](=O)[O-])c1` the figure was > 28.2 µM (inactive); with `Cn1c(=O)c(=O)n(C)c2cc(S(=O)(=O)N3CCN(C(=O)c4ccco4)CC3)ccc21`, > 28 µM (inactive); with `CCOC(=O)c1c(NC(=O)C(C)Sc2cn(C)c3ccccc23)sc2c1CCCCC2` (configuration not stated), “inactive”. The same measure for `COC(=O)c1ccc(Nc2ncnc3c2cnn3-c2ccc(C)cc2C)cc1`: 0.00158 µM; for `Cc1ccccc1-n1c(=O)cc(NCCCn2ccnc2)[nH]c1=O`: > 28 µM (inactive). With `COc1cc(OC)cc(C(=O)NC2CCCCCCC2)c1` the figure was > 39.8 µM (inactive). For `CCN(CC)C(=O)c1cn(CCC#N)nc1-c1ccc(OC)c([N+](=O)[O-])c1`, the EC50 is > 28 µM (inactive). With `Cn1ncc2c(NCCc3ccc(Cl)cc3Cl)ncnc21` the figure was > 27.8 µM (inactive). The same measure for `COc1ccc(C(=O)Nc2ccc(-n3nncc3C(C)(C)C)cc2)cc1`: > 31.7 µM (inactive); for `NP(=O)(Oc1ccc(Cl)cc1)Oc1ccc(Cl)cc1`: > 28.2 µM (inactive); for `Cc1c(C(=O)NCc2ccco2)oc2ccc(S(=O)(=O)N(C)C3CCCCC3)cc12`: > 28 µM (inactive). With `COc1ccc(-c2ccc(C(=O)Nc3ccccc3)s2)cc1` the figure was > 27.9 µM (inactive). `N#Cc1cccc(C(=O)NC2CCCC2)c1`: the EC50 is > 31.4 µM (inactive).

Turning to `COc1ccc(CCNC(=O)/C=C\C(=O)O)cc1OC`, the EC50 is > 28 µM (inactive).

Regarding `Cc1ccc(S(=O)(=O)Cn2nnnc2CN2CCN(c3ccccc3F)CC2)cc1`, the EC50 was > 28 µM (inactive).

Turning to `COc1cc(C2CC(=O)Nc3cc(C)c(C)cc32)cc(OC)c1OC` (configuration not stated), the EC50 is > 26.6 µM (inactive). The same measure for `Cc1ccccc1N(CC(=O)N1CCOCC1)S(=O)(=O)c1ccc(Cl)cc1`: > 28 µM (inactive).

On to `COc1ccc(OCc2cc(C(=O)N(C)Cc3ccncn3)no2)c(Cl)c1`, for which the EC50 is > 28 µM (inactive). Turning to `CC(C)(C)NS(=O)(=O)c1ccc(NC(=O)COc2ccc(Br)cc2)cc1`, the EC50 was > 28 µM (inactive). With `O=C(O)c1ccc(-n2cc(-c3ccc(Cl)cc3)cn2)cc1` the figure was > 28 µM (inactive); with `COc1ccc(-c2csc(/C(C#N)=C/Nc3ccc(F)c([N+](=O)[O-])c3)n2)cc1OC`, > 27.6 µM (inactive); with `COc1ccc2o/c(=N\NC(=O)c3ccccc3Nc3ccccc3)c(C(N)=O)cc2c1`, > 28 µM (inactive). The same measure for `O=C(O)c1ccc(COc2cccc(CO)c2)cc1`: > 28 µM (inactive). With `CCOC(=O)C1CCC(CN(CC(C)C)S(=O)(=O)c2ccc([N+](=O)[O-])cc2)CC1` (configuration not stated) the figure was > 23.7 µM (inactive); with `Cc1ccc2nc(/C(C#N)=C\c3ccccc3OCC#N)[nH]c2c1`, > 28 µM (inactive); with `O=C1N(CN2CCC3(CC2)OCCO3)c2ccccc2C12OCCCO2`, > 28 µM (inactive). Consider `CCN(CC)C(=O)CN(c1ccccc1)S(=O)(=O)c1ccc(C)cc1`, for which the EC50 is > 28 µM (inactive). The same measure for `Cc1cc2nc(-c3cccnc3SCC(=O)NCc3ccco3)[nH]c2cc1C`: > 28 µM (inactive). With `COc1ccc(C[C@H](N)C(=O)N[C@@H]2[C@@H](CO)OC(n3cnc4c(N(C)C)ncnc43)[C@@H]2O)cc1` (some centres not stated) the figure was > 28 µM (inactive); with `CCOC(=O)c1cc2c(c(CSc3nc4ccccc4c(=O)n3Cc3ccc4c(c3)OCO4)c1)OCOC2`, > 21.4 µM (inactive). The same measure for `COc1cccc(/C=C(\C#N)c2nc3ccc(C)cc3[nH]2)c1OC`: > 33.2 µM (inactive); for `O=Cc1cccc(OCc2ccc(C(=O)O)cc2)c1`: > 28 µM (inactive); for `O=C(Nc1ncc([N+](=O)[O-])s1)c1ccccc1F`: > 34 µM (inactive).

In the case of `CCc1ccccc1NC(=S)N(CCc1ccc(OC)c(OC)c1)Cc1cccnc1`, the EC50 was > 24.3 µM (inactive). With `COc1cc(CNc2ccc3ncc(-c4cnn(C)c4)n3n2)cc(OC)c1OC` the figure was > 28 µM (inactive).

In the case of `Cc1ccc(-c2cnn(-c3ccc(C(=O)O)cc3)c2)cc1`, the EC50 was > 28 µM (inactive). The same measure for `COc1cccc(-c2ccc(=O)n(CC(=O)Nc3ccc(Cl)c(C(F)(F)F)c3)n2)c1`: > 28 µM (inactive); for `Cc1cc(Br)ccc1Nc1nc(-c2ccccc2F)nc2ccccc12`: > 23.5 µM (inactive).
